PubChem BioAssay (NCI)
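Briefly, cells in 96-well plates were exposed to five compound concentrations for 48 h, and endpoints were estimated by linear interpolation. GI50 is the concentration that inhibits growth by half. At the TGI there is no net growth.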

Legend:
Experiment in all cases: growth of human tumour cells (NCI), 48 h
[1] = system: SK-MEL-2 melanoma
[2] = system: RPMI-8226 leukemia
[3] = system: OVCAR-3 ovarian
[4] = system: OVCAR-5 ovarian
[5] = system: M14 melanoma
[6] = system: CCRF-CEM leukemia
[7] = system: HCT-15 colon
[8] = system: ACHN renal
[9] = system: TK-10 renal
[10] = system: MDA-MB-435

Row | SMILES | TGI [1] [µM] | TGI [2] [µM] | TGI [3] [µM] | TGI [4] [µM] | TGI [5] [µM] | TGI [6] [µM] | TGI [7] [µM] | TGI [8] [µM] | TGI [9] [µM] | GI50 [1] [µM] | GI50 [2] [nM] | GI50 [3] [nM] | GI50 [4] [µM] | GI50 [5] [nM] | GI50 [7] [nM] | GI50 [8] [µM] | GI50 [9] [µM] | GI50 [10] [nM] | TGI [10] [µM] | GI50 [6] [nM]
1 | CCCN(CCC)c1c([N+](=O)[O-])cc(C(N)=O)cc1[N+](=O)[O-] | > 100 | > 100 | > 100 | > 100 | > 100 | > 100 | > 100 | > 100 | > 100 | – | – | – | – | – | – | – | – | – | – | –
2 | O=C1/C(=C/c2ccccc2)CN(C(=O)Oc2ccccc2)C/C1=C\c1ccccc1 | 65.5 | 0.819 | > 100 | > 100 | > 100 | 23.9 | > 100 | > 100 | 42.5 | – | – | – | – | – | – | – | – | – | – | –
3 | O=C1NC(=Nc2ccccc2Cl)SC1C(=O)Nc1ccc([N+](=O)[O-])cc1[N+](=O)[O-] (stereo not drawn) | > 100 | > 100 | > 100 | > 100 | > 100 | > 100 | > 100 | > 100 | > 100 | – | – | – | – | – | – | – | – | – | – | –
4 | CCC[CH2][Sn]1([CH2]CCC)[O]N=Cc2ccccc2[O]1 | 1.07 | 0.848 | 1.57 | 3.08 | 2.09 | – | 2.04 | 2.43 | 1.72 | 0.317 | 231 | 402 | 1.69 | 780 | 808 | 1.18 | 0.555 | – | – | –
5 | CC1(C)CC(=O)C=C(NC(=O)c2ccccc2)C1 | > 100 | > 100 | > 100 | – | > 100 | > 100 | > 100 | – | > 100 | – | – | – | – | – | – | – | – | – | – | –
6 | Cn1ccnc1C(=O)/C=C/c1ccc(CC(=O)Nc2cc(F)c(F)c(F)c2)cc1 | 10.6 | 3.54 | 4.44 | 9.39 | 8.45 | – | 6.58 | 19.2 | 13.4 | 4.22 | 795 | 1360 | 3.63 | 3680 | 1030 | 4.53 | 4.29 | 3360 | 10.4 | –
7 | CC(C)=CCCC1(C)C=Cc2c(ccc3c2[nH]c2cc(O)c(C)cc23)O1 (stereo not drawn) | > 25 | 18.9 | 9.07 | > 25 | 7.44 | 15.2 | 10.8 | 20.2 | > 25 | 6.47 | – | – | – | 3920 | 4960 | 6.83 | 16.7 | – | – | 4970
8 | CCc1cc(Nc2nccc(-c3c(-c4ccc(OC)c(C(=O)Nc5c(F)cccc5F)c4)nc4ccccn34)n2)c(OC)cc1N1CCC(N2CCN(S(C)(=O)=O)CC2)CC1 | > 88.4 | > 100 | > 100 | > 100 | > 100 | – | > 100 | > 100 | > 100 | > 51.8 | > 100000 | > 100000 | > 100 | > 58100 | > 100000 | > 100 | > 90.4 | > 100000 | > 100 | –
9 | C/C(CC(=O)Nc1cc(Cl)c(Cl)cc1Cl)=N\NS(=O)(=O)c1ccc(C)cc1 | 86.8 | 87.2 | 74.7 | > 100 | 91.4 | > 100 | – | 79.8 | > 100 | – | – | – | – | – | – | – | – | – | – | –
10 | COc1ccc(C2C3=C(COC3=O)N(CCO)c3cc4c(cc32)CCC4)cc1OC (stereo not drawn) | – | > 50 | 0.332 | > 50 | > 11.8 | > 50 | > 50 | > 50 | > 50 | – | 2640 | 127 | 3.59 | 542 | 1650 | 4.32 | – | 132 | 0.448 | 1730
11 | CC1CC(=O)CC[C@@H]1OCc1ccccc1 (stereo partly drawn) | > 100 | > 100 | > 100 | > 100 | > 100 | > 100 | > 100 | > 100 | > 100 | – | – | – | – | – | – | – | – | – | – | –
12 | CCN(CC)CCn1nc2c3c(cccc3c1=O)-c1ccccc1-2 | 13 | 24.2 | 45.2 | > 50 | 13.1 | 45.9 | 13.3 | – | 34.4 | 3.79 | 3190 | 3780 | 2.3 | 2150 | 1440 | – | 2.09 | 2960 | 10.5 | 2080
13 | COC(=O)C([O][Ge]([CH3])([CH3])[CH3])c1ccccc1 (stereo not drawn) | – | – | > 100 | > 100 | > 100 | > 100 | > 100 | > 100 | > 100 | – | – | > 100000 | > 100 | > 100000 | > 100000 | > 100 | > 100 | – | – | > 100000
14 | CCOc1c(Cc2ccccc2)c(=O)n2c3ccccc3n3c(=O)n(C)c(=O)c1c23 | > 100 | > 100 | > 100 | > 100 | > 100 | – | > 100 | > 100 | > 100 | – | – | – | – | – | – | – | – | – | – | –
15 | N#CCCCCCn1c2ccccc2c2c3c(c4c5ccccc5[nH]c4c21)C(=O)N(O)C3=O | 4.67 | 3.47 | 5.72 | – | 2.51 | – | 7.82 | 2.33 | 7.88 | 1.83 | 1040 | 1470 | – | 595 | 2150 | 0.851 | 2.2 | 1190 | 3.09 | –
16 | COC(=O)C1=C(c2cc(OC)c(OC)c(OC)c2)OC(c2cc(OC)c(OC)c(OC)c2)C1 (stereo not drawn) | – | 96.6 | 48.6 | > 100 | 50 | > 100 | > 100 | 65.4 | 63.9 | – | – | – | – | – | – | – | – | – | – | –
17 | N#CC(N)(C(=O)C(=O)NCCCNC(=O)C(=O)C(N)(C#N)c1ccc(Cl)cc1)c1ccc(Cl)cc1 (stereo not drawn) | > 100 | > 100 | > 100 | > 100 | > 100 | > 100 | > 100 | > 100 | > 100 | – | – | – | – | – | – | – | – | – | – | –
